Experimental data: patent publication US11566057B2, “Long-acting co-agonists of the glucagon and GLP-1 receptors” (Merck Sharp & Dohme Corp., priority 2017, dated 2023)
Read-outs that look alike come from different tables or passages of the source. Numbered stars: 1 amine (or outer) side, 2 acyl side, 3 side chain; on linkers, the order of the positions; unused ones are H or OH. Square brackets hold non-standard residues; d marks the D form. Side chains are listed from the residue outwards. Peptide text beside a SMILES is read from it. * marks the point of attachment. C18 diacid = O=C(O)CCCCCCCCCCCCCCCCC(=O)*; C16 diacid = O=C(O)CCCCCCCCCCCCCCC(=O)*; γGlu = O=C(O)[C@H](CCC(=O)[*:2])N[*:1]; Met(O2) = CS(=O)(=O)CC[C@H](N)C(=O)O; αMeD = C[C@](N)(CC(=O)O)C(=O)O; αMeS = C[C@](N)(CO)C(=O)O; AEEA = NCCOCCOCC(=O)O; Aib = CC(C)(N)C(=O)O

Legend:
human GLP1R = target: T1, human GLP1R (Homo sapiens, UniProt P43220); experiment: cAMP activity assay at the GLP-1 receptor (GLP1R); format: cell-based
T1 construct: expressed in transfected cells; growth medium holds Blasticidin and Hygromycin
Method in brief: (§1)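 Peptides serially diluted from DMSO (10 points) and added to frozen-stock cells bearing human GLP1R (10,000 cells/well) or GCGR (30,000 cells/well), 1 h at RT, dark. EC50 by four-parameter logistic fit of HitHunter cAMPXS luminescence, read following overnight RT incubation.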

human GCGR = target: T2, human GCGR (Homo sapiens, UniProt P47871); experiment: cAMP activity assay at the Glucagon receptor (GCGR); format: cell-based; conditions: for hGCGR/hGLP1R (hTone): ratio of GCGR EC50 to GLP1R EC50
T2 construct: expressed in transfected cells; growth medium holds Blasticidin and Hygromycin
Method in brief: as §1

[1] = summary statement: EC50 at each of the glucagon and GLP-1 receptors, read-out: EC50 at the GLP-1 receptor
[2] = summary statement: EC50 at each of the glucagon and GLP-1 receptors, read-out: EC50 at the glucagon receptor
[3] = cells expressing human GLP1R, cAMP production, buffer with or without 20% human serum (not stated which), read-out: GLP1R EC50 human
[4] = cells expressing human GCGR, cAMP production, buffer with or without 20% human serum (not stated which), read-out: GCGR EC50 human

T1 sequence (P43220 24-463): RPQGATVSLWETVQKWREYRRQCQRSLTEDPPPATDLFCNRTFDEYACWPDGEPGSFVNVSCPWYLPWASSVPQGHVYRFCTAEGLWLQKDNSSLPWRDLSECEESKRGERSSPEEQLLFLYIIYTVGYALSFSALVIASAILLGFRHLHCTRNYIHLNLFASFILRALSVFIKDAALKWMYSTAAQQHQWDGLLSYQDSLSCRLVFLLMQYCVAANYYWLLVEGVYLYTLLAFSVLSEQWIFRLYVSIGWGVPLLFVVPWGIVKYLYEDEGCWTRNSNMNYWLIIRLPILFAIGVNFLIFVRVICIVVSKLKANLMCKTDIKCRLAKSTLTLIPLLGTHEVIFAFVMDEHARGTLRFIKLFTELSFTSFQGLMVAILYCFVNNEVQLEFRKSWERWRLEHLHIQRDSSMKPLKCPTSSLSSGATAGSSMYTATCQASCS
T2 sequence (P47871 26-477): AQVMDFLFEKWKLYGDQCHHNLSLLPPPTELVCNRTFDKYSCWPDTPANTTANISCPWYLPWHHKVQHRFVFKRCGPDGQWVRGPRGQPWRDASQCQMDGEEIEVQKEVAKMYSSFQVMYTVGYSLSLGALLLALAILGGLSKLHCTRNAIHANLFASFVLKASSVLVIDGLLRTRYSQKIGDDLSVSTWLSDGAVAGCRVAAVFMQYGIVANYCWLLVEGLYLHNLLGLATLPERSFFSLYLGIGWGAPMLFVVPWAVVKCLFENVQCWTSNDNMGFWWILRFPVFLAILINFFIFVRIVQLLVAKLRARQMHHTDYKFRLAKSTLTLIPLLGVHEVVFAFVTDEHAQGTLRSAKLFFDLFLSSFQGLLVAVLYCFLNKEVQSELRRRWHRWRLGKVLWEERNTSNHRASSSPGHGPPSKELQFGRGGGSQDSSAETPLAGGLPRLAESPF

Compound | EC50 (human GLP1R; [1]) [nM] | hGCGR/hGLP1R (hTone) (human GCGR) | EC50 (human GCGR; [2]) [nM] | EC50 (human GLP1R; [3]) [nM] | EC50 (human GCGR; [4]) [nM]
CC(C)C[C@H](NC(=O)[C@H](Cc1ccc(O)cc1)NC(=O)[C@H](CCCCN)NC(=O)[C@H](CO)NC(=O)[C@H](Cc1ccc(O)cc1)NC(=O)[C@H](CC(=O)O)NC(=O)[C@H](CO)NC(=O)[C@@H](NC(=O)[C@H](Cc1ccccc1)NC(=O)[C@@H](NC(=O)CNC(=O)[C@H](CCC(N)=O)NC(=O)[C@](C)(CO)NC(=O)[C@@H](N)Cc1c[nH]cn1)[C@@H](C)O)[C@@H](C)O)C(=O)N[C@@H](CC(=O)O)C(=O)N[C@@H](C)C(=O)N[C@@H](CCCNC(=N)N)C(=O)N[C@@H](C)C(=O)N[C@@H](C)C(=O)N[C@@H](CCC(N)=O)C(=O)N[C@@H](CCCCNC(=O)COCCOCCNC(=O)COCCOCCNC(=O)CC[C@H](NC(=O)CCCCCCCCCCCCCCC(=O)O)C(=O)O)C(=O)N[C@@H](Cc1ccccc1)C(=O)N[C@H](C(=O)N[C@@H](CCC(N)=O)C(=O)N[C@@H](Cc1c[nH]c2ccccc12)C(=O)N[C@@H](CC(C)C)C(=O)N[C@@H](CCS(C)(=O)=O)C(=O)N[C@@](C)(CC(=O)O)C(=O)N[C@H](C(N)=O)[C@@H](C)O)C(C)C [TP615] (H-H[αMeS]QGTFTSDYSKYLDARAAQK([AEEA-AEEA-γGlu-C16 diacid])FVQWL[Met(O2)][αMeD]T-NH2) | < 5 | 0.6 | < 5 |  | 
CC(C)C[C@H](NC(=O)[C@H](Cc1ccc(O)cc1)NC(=O)[C@H](CCCCN)NC(=O)[C@H](CO)NC(=O)[C@H](Cc1ccc(O)cc1)NC(=O)[C@H](CC(=O)O)NC(=O)[C@H](CO)NC(=O)[C@@H](NC(=O)[C@H](Cc1ccccc1)NC(=O)[C@@H](NC(=O)CNC(=O)[C@H](CCC(N)=O)NC(=O)[C@](C)(CO)NC(=O)[C@@H](N)Cc1c[nH]cn1)[C@@H](C)O)[C@@H](C)O)C(=O)N[C@@H](CC(=O)O)C(=O)N[C@@H](C)C(=O)N[C@@H](CCCNC(=N)N)C(=O)N[C@@H](C)C(=O)N[C@@H](C)C(=O)N[C@@H](CCCCNC(=O)COCCOCCNC(=O)COCCOCCNC(=O)CC[C@H](NC(=O)CCCCCCCCCCCCCCCCC(=O)O)C(=O)O)C(=O)N[C@@H](CC(=O)O)C(=O)N[C@@H](Cc1ccccc1)C(=O)N[C@H](C(=O)N[C@@H](CCC(N)=O)C(=O)N[C@@H](Cc1c[nH]c2ccccc12)C(=O)N[C@@H](CC(C)C)C(=O)N[C@@H](CCS(C)(=O)=O)C(=O)N[C@@](C)(CC(=O)O)C(=O)N[C@H](C(N)=O)[C@@H](C)O)C(C)C [TP616] (H-H[αMeS]QGTFTSDYSKYLDARAAK([AEEA-AEEA-γGlu-C18 diacid])DFVQWL[Met(O2)][αMeD]T-NH2; N-terminus assumed) | < 5 | 0.7 | < 5 |  | 
CC(C)C[C@H](NC(=O)[C@H](Cc1ccc(O)cc1)NC(=O)[C@H](CCCCN)NC(=O)[C@H](CO)NC(=O)[C@H](Cc1ccc(O)cc1)NC(=O)[C@H](CC(=O)O)NC(=O)[C@H](CO)NC(=O)[C@@H](NC(=O)[C@H](Cc1ccccc1)NC(=O)[C@@H](NC(=O)CNC(=O)[C@H](CCC(N)=O)NC(=O)[C@](C)(CO)NC(=O)[C@@H](N)Cc1c[nH]cn1)[C@@H](C)O)[C@@H](C)O)C(=O)N[C@@H](CC(=O)O)C(=O)N[C@@H](C)C(=O)N[C@@H](CCCNC(=N)N)C(=O)N[C@@H](C)C(=O)N[C@@H](C)C(=O)N[C@@H](CCC(N)=O)C(=O)N[C@@H](CCCCNC(=O)COCCOCCNC(=O)COCCOCCNC(=O)CC[C@H](NC(=O)CCCCCCCCCCCCCCCCC(=O)O)C(=O)O)C(=O)N[C@@H](Cc1ccccc1)C(=O)N[C@H](C(=O)N[C@@H](CCC(N)=O)C(=O)N[C@@H](Cc1c[nH]c2ccccc12)C(=O)N[C@@H](CC(C)C)C(=O)N[C@@H](CCS(C)(=O)=O)C(=O)N[C@@](C)(CC(=O)O)C(=O)N[C@H](C(N)=O)[C@@H](C)O)C(C)C [TP617] (H-H[αMeS]QGTFTSDYSKYLDARAAQK([AEEA-AEEA-γGlu-C18 diacid])FVQWL[Met(O2)][αMeD]T-NH2) | < 5 | 0.8 | < 5 | 0.76 | 
CC(C)C[C@H](NC(=O)[C@H](Cc1ccc(O)cc1)NC(=O)[C@H](CCCCN)NC(=O)[C@H](CO)NC(=O)[C@H](Cc1ccc(O)cc1)NC(=O)[C@H](CC(=O)O)NC(=O)[C@H](CO)NC(=O)[C@@H](NC(=O)[C@H](Cc1ccccc1)NC(=O)[C@@H](NC(=O)CNC(=O)[C@H](CCC(N)=O)NC(=O)[C@](C)(CO)NC(=O)[C@@H](N)Cc1c[nH]cn1)[C@@H](C)O)[C@@H](C)O)C(=O)N[C@@H](CC(=O)O)C(=O)NC(C)(C)C(=O)N[C@@H](CCCNC(=N)N)C(=O)N[C@@H](C)C(=O)N[C@@H](C)C(=O)N[C@@H](CCCCNC(=O)COCCOCCNC(=O)COCCOCCNC(=O)CC[C@H](NC(=O)CCCCCCCCCCCCCCC(=O)O)C(=O)O)C(=O)N[C@@H](CC(=O)O)C(=O)N[C@@H](Cc1ccccc1)C(=O)N[C@H](C(=O)N[C@@H](CCC(N)=O)C(=O)N[C@@H](Cc1c[nH]c2ccccc12)C(=O)N[C@@H](CC(C)C)C(=O)N[C@@H](CCS(C)(=O)=O)C(=O)N[C@@](C)(CC(=O)O)C(=O)N[C@H](C(N)=O)[C@@H](C)O)C(C)C [TP618] (H-H[αMeS]QGTFTSDYSKYLD[Aib]RAAK([AEEA-AEEA-γGlu-C16 diacid])DFVQWL[Met(O2)][αMeD]T-NH2) | < 5 | 0.1 | < 5 |  | 0.36
CC(C)C[C@H](NC(=O)[C@H](Cc1ccc(O)cc1)NC(=O)[C@H](CCCCN)NC(=O)[C@H](CO)NC(=O)[C@H](Cc1ccc(O)cc1)NC(=O)[C@H](CC(=O)O)NC(=O)[C@H](CO)NC(=O)[C@@H](NC(=O)[C@H](Cc1ccccc1)NC(=O)[C@@H](NC(=O)CNC(=O)[C@H](CCC(N)=O)NC(=O)[C@](C)(CO)NC(=O)[C@@H](N)Cc1c[nH]cn1)[C@@H](C)O)[C@@H](C)O)C(=O)N[C@@H](CC(=O)O)C(=O)NC(C)(C)C(=O)N[C@@H](CCCNC(=N)N)C(=O)N[C@@H](C)C(=O)N[C@@H](C)C(=O)N[C@@H](CCC(N)=O)C(=O)N[C@@H](CCCCNC(=O)COCCOCCNC(=O)COCCOCCNC(=O)CC[C@H](NC(=O)CCCCCCCCCCCCCCC(=O)O)C(=O)O)C(=O)N[C@@H](Cc1ccccc1)C(=O)N[C@H](C(=O)N[C@@H](CCC(N)=O)C(=O)N[C@@H](Cc1c[nH]c2ccccc12)C(=O)N[C@@H](CC(C)C)C(=O)N[C@@H](CCS(C)(=O)=O)C(=O)N[C@@](C)(CC(=O)O)C(=O)N[C@H](C(N)=O)[C@@H](C)O)C(C)C [TP619] (H-H[αMeS]QGTFTSDYSKYLD[Aib]RAAQK([AEEA-AEEA-γGlu-C16 diacid])FVQWL[Met(O2)][αMeD]T-NH2) | < 5 | 0.1 | < 5 | 0.38 | 
CC(C)C[C@H](NC(=O)[C@H](Cc1ccc(O)cc1)NC(=O)[C@H](CCCCN)NC(=O)[C@H](CO)NC(=O)[C@H](Cc1ccc(O)cc1)NC(=O)[C@H](CC(=O)O)NC(=O)[C@H](CO)NC(=O)[C@@H](NC(=O)[C@H](Cc1ccccc1)NC(=O)[C@@H](NC(=O)CNC(=O)[C@H](CCC(N)=O)NC(=O)[C@](C)(CO)NC(=O)[C@@H](N)Cc1c[nH]cn1)[C@@H](C)O)[C@@H](C)O)C(=O)N[C@@H](CC(=O)O)C(=O)NC(C)(C)C(=O)N[C@@H](CCCNC(=N)N)C(=O)N[C@@H](C)C(=O)N[C@@H](C)C(=O)N[C@@H](CCCCNC(=O)COCCOCCNC(=O)COCCOCCNC(=O)CC[C@H](NC(=O)CCCCCCCCCCCCCCCCC(=O)O)C(=O)O)C(=O)N[C@@H](CC(=O)O)C(=O)N[C@@H](Cc1ccccc1)C(=O)N[C@H](C(=O)N[C@@H](CCC(N)=O)C(=O)N[C@@H](Cc1c[nH]c2ccccc12)C(=O)N[C@@H](CC(C)C)C(=O)N[C@@H](CCS(C)(=O)=O)C(=O)N[C@@](C)(CC(=O)O)C(=O)N[C@H](C(N)=O)[C@@H](C)O)C(C)C [TP620] (H-H[αMeS]QGTFTSDYSKYLD[Aib]RAAK([AEEA-AEEA-γGlu-C18 diacid])DFVQWL[Met(O2)][αMeD]T-NH2; N-terminus assumed) | < 5 | 0.1 | < 5 |  | 
CC(C)C[C@H](NC(=O)[C@H](Cc1ccc(O)cc1)NC(=O)[C@H](CCCCN)NC(=O)[C@H](CO)NC(=O)[C@H](Cc1ccc(O)cc1)NC(=O)[C@H](CC(=O)O)NC(=O)[C@H](CO)NC(=O)[C@@H](NC(=O)[C@H](Cc1ccccc1)NC(=O)[C@@H](NC(=O)CNC(=O)[C@H](CCC(N)=O)NC(=O)[C@](C)(CO)NC(=O)[C@@H](N)Cc1c[nH]cn1)[C@@H](C)O)[C@@H](C)O)C(=O)N[C@@H](CC(=O)O)C(=O)NC(C)(C)C(=O)N[C@@H](CCCNC(=N)N)C(=O)N[C@@H](C)C(=O)N[C@@H](C)C(=O)N[C@@H](CCC(N)=O)C(=O)N[C@@H](CCCCNC(=O)COCCOCCNC(=O)COCCOCCNC(=O)CC[C@H](NC(=O)CCCCCCCCCCCCCCCCC(=O)O)C(=O)O)C(=O)N[C@@H](Cc1ccccc1)C(=O)N[C@H](C(=O)N[C@@H](CCC(N)=O)C(=O)N[C@@H](Cc1c[nH]c2ccccc12)C(=O)N[C@@H](CC(C)C)C(=O)N[C@@H](CCS(C)(=O)=O)C(=O)N[C@@](C)(CC(=O)O)C(=O)N[C@H](C(N)=O)[C@@H](C)O)C(C)C [TP621] (H-H[αMeS]QGTFTSDYSKYLD[Aib]RAAQK([AEEA-AEEA-γGlu-C18 diacid])FVQWL[Met(O2)][αMeD]T-NH2) | < 5 | 0.1 | < 5 |  | 0.25
